Laboratory results published in ChEMBL document CHEMBL4321810, “Structural Characterization of Agonist Binding to an A3 Adenosine Receptor through Biomolecular Simulations and Mutagenesis Experiments” (J Med Chem, 2019).
Substitutions are numbered along the chain they refer to. Calls of active or inactive are those of the source.

Columns and labels:
[1] = test system: T1, Adenosine receptor A3 (Homo sapiens), P0DMS8 [N250A]
T1 sequence (whole entry): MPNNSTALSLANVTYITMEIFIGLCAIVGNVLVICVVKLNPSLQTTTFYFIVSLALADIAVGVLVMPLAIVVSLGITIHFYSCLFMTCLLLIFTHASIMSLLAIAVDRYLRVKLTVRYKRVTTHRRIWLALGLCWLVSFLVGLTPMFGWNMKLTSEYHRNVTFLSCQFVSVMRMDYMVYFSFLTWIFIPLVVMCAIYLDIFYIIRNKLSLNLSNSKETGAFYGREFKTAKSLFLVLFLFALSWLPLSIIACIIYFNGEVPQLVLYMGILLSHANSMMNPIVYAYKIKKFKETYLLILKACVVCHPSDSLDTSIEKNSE

[2] = test system: T2, Adenosine receptor A3 (Homo sapiens), P0DMS8 [F168A]
T2 sequence (whole entry): T1 sequence (whole entry) with F168A, A250N

[3] = test system: T3, Adenosine receptor A3 (Homo sapiens), P0DMS8 [L246A]
T3 sequence (whole entry): T1 sequence (whole entry) with L246A, A250N

[4] = test system: T4, Adenosine receptor A3 (Homo sapiens), P0DMS8 [I268A]
T4 sequence (whole entry): T1 sequence (whole entry) with A250N, I268A

[5] = test system: T5, Adenosine receptor A3 (Homo sapiens), P0DMS8 [S271A]
T5 sequence (whole entry): T1 sequence (whole entry) with A250N, S271A

[6] = test system: T6, Adenosine receptor A3 (Homo sapiens), P0DMS8 [H272A]
T6 sequence (whole entry): T1 sequence (whole entry) with A250N, H272A

Measured: pIC50

CNC(=O)[C@H]1O[C@@H](n2cnc3c(NCc4cccc(I)c4)ncnc32)[C@H](O)[C@@H]1O
inactive: [1] | Homo sapiens | [2] | [3] | [4] | [5] | [6]

CCNC(=O)[C@H]1O[C@@H](n2cnc3c(N)ncnc32)[C@H](O)[C@@H]1O
inactive: [1] | Homo sapiens | [2] | [3] | [4] | [5] | [6]
